Measurements reported in ChEMBL document CHEMBL4387730, “Discovery of a new autophagy inducer for A549 lung cancer cells” (Bioorg Med Chem, 2019).
The source made the active and inactive calls. The rule behind the calls is not given here.

Columns and labels:
[1] = tested on: A549; test: Cytotoxicity against human A549 cells assessed as reduction in viability at 0.1 to 20 uM after 48 hrs by SRB assay; format: functional, cell-based
[2] = tested on: A549; test: Cytotoxicity against human A549 cells assessed as reduction in viability at 0.1 to 20 uM after 24 hrs by SRB assay; format: functional, cell-based
[3] = tested on: A549; test: Cytotoxicity against human A549 cells assessed as reduction in viability after 48 hrs by SRB assay; format: functional, cell-based; details: A549, 48 h
[4] = tested on: A549; test: Induction of autophagy in human A549 cells assessed as increase in […] expression at 1 to 10 uM after 24 hrs by Western blot analysis; format: functional, cell-based
[5] = tested on: A549; test: Induction of autophagy in human A549 cells assessed decrease in p62 expression at 1 to 10 uM after 24 hrs by Western blot analysis; format: functional, cell-based
[6] = tested on: A549; test: Induction of autophagic flux in human A549 cells assessed as increase in LC3-II protein level at 10 uM after 24 hrs in presence of V-ATPase inhibitor bafilomycin-A1 by Western blot analysis; format: functional, cell-based
[7] = molecular target: mTORC1 (Homo sapiens) (UniProt P42345+Q8N122+Q9BVC4); test: Inhibition of mTORC1 in human A549 cells assessed as reduction in p70S6K phosphorylation at 10 uM after 3 to 24 hrs by Western blot analysis; format: cell-based
[8] = tested on: U-87 MG; test: Induction of autophagy in human U87 cells transfected with GFP-fused LC3-II assessed as punctiform pattern of LC3-II at 1 to 10 uM after 24 hrs by laser scanning confocal microscopic method; format: functional, cell-based; details: U-87MG ATCC
[9] = tested on: A549; test: Induction of necrosis in human A549 cells assessed as increase in LDH activity at 10 uM after 24 hrs by absorption spectrophotometric method; format: cell-based; details: a549, 24 h
[10] = tested on: A549; test: Induction of necrosis in human A549 cells assessed as increase in LDH activity at 0.1 to 5 uM after 24 hrs by absorption spectrophotometric method; format: cell-based; details: a549, 24 h
[11] = tested on: A549; test: Induction of apoptosis in human A549 cells assessed as increase in Cleaved-PARP expression at 1 to 10 uM after 24 hrs by Western blot analysis; format: functional, cell-based
[12] = tested on: A549; test: Induction of morphological changes in human A549 cells assessed as apoptotic body formation at 0.1 to 20 uM after 3 to 24 hrs by acridine orange staining based inverted phase contrast microscopic method; format: functional, cell-based
[13] = tested on: A549; test: Induction of autophagy in human A549 cells assessed as accumulation of acidic vesicles at 0.05 to 20 uM after 24 hrs by acridine orange staining based fluorescence microscopic method; format: functional, cell-based
[14] = tested on: A549; test: Inhibition of autophagy flux in human A549 assessed as increase in p62 expression at 1 to 10 uM after 24 hrs by Western blot analysis; format: functional, cell-based

Sequence of mTORC1 (Homo sapiens) (Q8N122 whole entry, looked up, other chains not shown, the tested form may be a part): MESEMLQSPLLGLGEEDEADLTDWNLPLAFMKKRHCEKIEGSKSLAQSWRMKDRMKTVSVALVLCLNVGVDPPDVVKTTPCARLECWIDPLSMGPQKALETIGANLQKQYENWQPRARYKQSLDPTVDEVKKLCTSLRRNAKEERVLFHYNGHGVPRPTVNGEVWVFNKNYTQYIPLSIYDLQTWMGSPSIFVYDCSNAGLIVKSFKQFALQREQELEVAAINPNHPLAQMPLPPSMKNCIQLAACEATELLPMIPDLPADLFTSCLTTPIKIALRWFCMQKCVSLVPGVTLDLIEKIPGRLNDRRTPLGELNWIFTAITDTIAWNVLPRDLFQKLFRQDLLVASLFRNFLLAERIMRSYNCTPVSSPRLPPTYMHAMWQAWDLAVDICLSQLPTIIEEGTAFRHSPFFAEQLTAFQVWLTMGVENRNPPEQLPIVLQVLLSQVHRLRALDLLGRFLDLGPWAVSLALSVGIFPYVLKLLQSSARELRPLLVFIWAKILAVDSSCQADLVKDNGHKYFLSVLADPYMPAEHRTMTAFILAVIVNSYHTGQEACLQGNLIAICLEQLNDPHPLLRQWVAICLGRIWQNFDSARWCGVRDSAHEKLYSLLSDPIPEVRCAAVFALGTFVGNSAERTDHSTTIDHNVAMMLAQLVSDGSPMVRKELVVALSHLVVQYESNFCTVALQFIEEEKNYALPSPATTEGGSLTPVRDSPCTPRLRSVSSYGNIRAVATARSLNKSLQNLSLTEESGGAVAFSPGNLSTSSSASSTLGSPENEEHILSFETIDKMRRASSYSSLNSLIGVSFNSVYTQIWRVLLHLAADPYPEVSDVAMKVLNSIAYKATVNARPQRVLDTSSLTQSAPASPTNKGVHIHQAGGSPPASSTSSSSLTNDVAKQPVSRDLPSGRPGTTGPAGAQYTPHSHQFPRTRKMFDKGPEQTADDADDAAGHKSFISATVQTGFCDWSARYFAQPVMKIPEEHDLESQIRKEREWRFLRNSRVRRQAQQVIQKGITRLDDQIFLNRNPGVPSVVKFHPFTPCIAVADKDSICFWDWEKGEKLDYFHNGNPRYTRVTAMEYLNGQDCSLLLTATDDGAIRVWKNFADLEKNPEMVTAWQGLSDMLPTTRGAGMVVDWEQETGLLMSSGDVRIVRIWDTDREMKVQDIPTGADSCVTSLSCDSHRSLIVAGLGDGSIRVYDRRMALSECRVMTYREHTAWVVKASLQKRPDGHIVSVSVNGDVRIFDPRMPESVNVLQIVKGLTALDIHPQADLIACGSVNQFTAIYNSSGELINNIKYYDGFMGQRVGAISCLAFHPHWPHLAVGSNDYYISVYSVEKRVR
Sequence of mTORC1 (Homo sapiens) (Q9BVC4 whole entry, looked up, other chains not shown, the tested form may be a part): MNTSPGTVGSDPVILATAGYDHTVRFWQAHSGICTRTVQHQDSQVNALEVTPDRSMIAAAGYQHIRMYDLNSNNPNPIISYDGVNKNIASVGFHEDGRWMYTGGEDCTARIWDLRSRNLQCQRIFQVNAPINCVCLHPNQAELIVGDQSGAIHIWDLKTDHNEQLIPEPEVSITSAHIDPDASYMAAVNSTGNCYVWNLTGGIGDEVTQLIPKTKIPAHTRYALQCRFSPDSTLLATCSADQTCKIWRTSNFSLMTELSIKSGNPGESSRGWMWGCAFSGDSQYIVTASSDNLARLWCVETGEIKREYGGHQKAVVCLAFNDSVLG

SMILES	Activity [1]	Activity [2]	also measured
O=Cc1ccc2c(c1)c1ccccc1n2CCCN1CCNCC1	inactive	inactive	–
O=C1OC(=O)c2ccc(N3CCCC3)c3cccc1c23	inactive	inactive	–
O=Cc1ccc2c(c1)c1ccccc1n2CCCCl	inactive	inactive	–
O=C(O)c1ccc2c(c1)S(=O)(=O)c1ccccc1N2CCCCl	inactive	inactive	–
CCN(CC)c1ccc2ccc(=O)oc2c1	inactive	inactive	–
C[N+]1=C(/C=C/c2ccc(N)cc2)C(C)(C)c2ccccc21	Active	Active	IC50 [3]: 3.9 µM
Cc1cc[n+](CCCN2c3ccccc3S(=O)(=O)c3cc(C(=O)O)ccc32)cc1	inactive	inactive	–
CCN(CC)C(=O)c1ccc(-c2oc3ccccc3c(=O)c2O)cc1	inactive	inactive	–
C[N+]1=C(/C=C/c2ccc(N3CCNCC3)cc2)C(C)(C)c2ccccc21	Active	Active	IC50 [3]: 13.6 µM
CC1=[N+](C)c2ccccc2C1(C)C	inactive	inactive	–
O=c1[nH]cc(F)c(=O)[nH]1 [FLUOROURACIL]	Active	Active	IC50 [3]: 7.1 µM
O=C(O)c1ccc(-c2oc3ccccc3c(=O)c2O)cc1	inactive	inactive	–
O=C(O)c1ccc(N2C(=O)c3cccc4cccc(c34)C2=O)cc1	inactive	inactive	–
C[N+]1=C(/C=C/c2ccc(N3CCCCC3)cc2)C(C)(C)c2ccccc21.[I-]	Active	Active	Activity [4]: Active; Activity [5]: Active; Activity [6]: Active; inhibition [7]: Active; IC50 [3]: 1.1 µM; Activity [8]: Dose-dependent effect; Activity [9]: Non-Toxic; Activity [10]: Non-Toxic; Activity [11]: Active; Activity [12]: Active; Activity [13]: Active
CC1(C)CC(/C=C/c2ccc(N3CCNCC3)cc2)=CC(=C(C#N)C#N)C1	Active	Active	Activity [4]: Active; inhibition [14]: Active; IC50 [3]: 7.1 µM; Activity [9]: Toxic; Activity [10]: Non-Toxic; Activity [11]: Active; Activity [12]: Active; Activity [13]: Active
CCN(CC)c1ccc2cc(-c3ccc(N)cc3)c(=O)oc2c1	inactive	inactive	–
CCN(CC)c1ccc2cc(-c3ccc(C)cc3)c(=O)oc2c1	inactive	inactive	–
